By IC50 is commonly meant the concentration that inhibits the measured activity by half. The low end stands for higher potency, the high end for lower potency.

This note sets out measurements from ChEMBL document CHEMBL3638784, “Fused bicyclic oxazolidinone CETP inhibitor” (2014).

The experiment concerns the target T1, Cholesteryl ester transfer protein (Homo sapiens, UniProt P11597).
T1 sequence (P11597 whole entry): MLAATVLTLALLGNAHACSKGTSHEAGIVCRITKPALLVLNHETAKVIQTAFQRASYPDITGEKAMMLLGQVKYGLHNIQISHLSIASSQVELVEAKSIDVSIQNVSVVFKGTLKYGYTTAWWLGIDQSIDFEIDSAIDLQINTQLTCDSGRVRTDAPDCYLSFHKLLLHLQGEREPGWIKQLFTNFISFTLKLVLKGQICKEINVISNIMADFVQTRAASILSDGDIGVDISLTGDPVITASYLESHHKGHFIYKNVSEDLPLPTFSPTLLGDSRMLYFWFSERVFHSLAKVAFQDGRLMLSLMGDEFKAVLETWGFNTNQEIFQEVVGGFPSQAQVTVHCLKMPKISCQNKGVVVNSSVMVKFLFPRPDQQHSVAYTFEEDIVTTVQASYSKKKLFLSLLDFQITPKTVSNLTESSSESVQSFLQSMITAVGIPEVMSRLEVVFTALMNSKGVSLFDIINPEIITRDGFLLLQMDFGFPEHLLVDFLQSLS
As to the kind of experiment: Scintillation Proximity Assay (SPA): First, low density lipoprotein (LDL) (Meridian) was biotinylated by incubating LDL with biotin for 1 hour on ice, after which it was dialyzed to remove free biotin. Then compounds at varying concentrations were incubated with 15 nM CETP (reagent production group, In Vitro Pharmacology, MRL Rahway) and 50 ug/ml of the biotinylated LDL in 50 mM HEPES, 150 mM NaCl, pH 7.4, for 1 hour at 37° C. The reaction was started by adding 3H-cholesterol ester high density lipoprotein (HDL) (American Radiochemicals Corp) at a concentration of ~0.6 nM. The reaction proceeded for 2 hours at 37° C., after which time it was quenched by the addition of 12% acetic acid. PVT streptavadin-coated scintillation proximity beads, which had been brought to room temperature, were then added at a concentration of 4 mg/ml. The assay was then mixed and counted after one half hour in a Microbeta plate reader. Background: SPA uses beads or plates that emit light when radiolabelled molecules are held near them.

Regarding `N#Cc1cccc(-c2ccc(C(F)(F)F)cc2[C@@H]2CC[C@H]3[C@@H](c4cc(C(F)(F)F)cc(C(F)(F)F)c4)OC(=O)N23)c1`, the 50% inhibitory concentration (IC50) was found to be 177 nM.
